Test: Compound was evaluated for inhibition of Protease

| SMILES | IC50 |
| --- | --- |
| O=C(N[C@@H](Cc1ccccc1)C(=O)N[C@@H](CCc1ccccc1)C(=O)[C@@H]1CO1)OCc1ccccc1 [{(S)-1-[(S)-1-((S)-Oxiranecarbonyl)-3-phenyl-propylcarbamoyl]-2-phenyl-ethyl}-carbamic acid benzyl ester] | 10 nM |
| O=C(N[C@@H](Cc1ccccc1)C(=O)N[C@@H](CCc1ccccc1)C(=O)[C@H]1CO1)OCc1ccccc1 [{(S)-1-[(S)-1-((R)-Oxiranecarbonyl)-3-phenyl-propylcarbamoyl]-2-phenyl-ethyl}-carbamic acid benzyl ester] | > 1000 nM |
| C[C@H](NC(=O)[C@H](Cc1ccccc1)NC(=O)OCc1ccccc1)C(=O)[C@@H]1CO1 [[(S)-1-((S)-1-Methyl-2-(S)-oxiranyl-2-oxo-ethylcarbamoyl)-2-phenyl-ethyl]-carbamic acid benzyl ester] | 80 nM |
| C[C@H](NC(=O)[C@H](Cc1ccccc1)NC(=O)OCc1ccccc1)C(=O)[C@H]1CO1 [[(S)-1-((S)-1-Methyl-2-(R)-oxiranyl-2-oxo-ethylcarbamoyl)-2-phenyl-ethyl]-carbamic acid benzyl ester] | 1000 nM |

From BindingDB's records for doi:10.1016/s0960-894x(98)00494-6 (University of Michigan, 1999)
